One experiment concerns the target T1, hMGL (Homo sapiens, UniProt Q99685).
T1 construct: A full-length cDNA clone of the human MGL transcript variant 1; made in house; host or cells: E. coli BL21 (DE3)
T1 sequence (Q99685 2-303 limits assumed): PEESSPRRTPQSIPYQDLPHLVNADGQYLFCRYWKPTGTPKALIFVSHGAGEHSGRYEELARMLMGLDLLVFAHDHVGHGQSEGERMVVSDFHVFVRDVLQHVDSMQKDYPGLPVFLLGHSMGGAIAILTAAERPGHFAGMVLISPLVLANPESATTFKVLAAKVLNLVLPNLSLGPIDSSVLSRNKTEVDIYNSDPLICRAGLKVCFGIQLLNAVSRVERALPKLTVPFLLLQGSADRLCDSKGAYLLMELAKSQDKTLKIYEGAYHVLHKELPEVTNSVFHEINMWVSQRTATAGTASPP
As to the kind of experiment: Fluorescent enzyme assay, MGL (AHMMCE hydrolysis). The class given is biochemical. The conditions noted are these: AHMMCE substrate, screening assay; for inhibition at 0.01 µM: 10 nM inhibitor, read-out: % Inhibition of Enzyme by inhibitor, MGL, 10 nM; for inhibition at 1 µM: 1000 nM inhibitor. Here is the method:
(§1) Some analogs were tested for their FAAH/MGL inhibitory activity, which is expressed as % of inhibition (Tables 2, 3, and 4 below). The percentage of inhibition results from three-point assay (three concentrations of inhibitor are used) and it is less accurate (preliminary screening) than the IC50/Ki values that are determined from eight-point assay (eight different concentrations of inhibitor were used). The percentage of inhibition describes the percentage by which the inhibitor reduces the velocity/rate of AAMCA (arachidonoyl-7-amino-4-methylcoumarin amide) or AHMMCE (arachidonoyl-7-hydroxy-6-methoxy-4-methylcoumarin ester) hydrolysis by FAAH or MGL respectively. The IC50 is the concentration of the inhibitor, which results in 50% inhibition of the velocity/rate of AAMCA (arachidonoyl 7-amino-4-methylcoumarin amide) hydrolysis by FAAH or AHMMCE (Arachidonoyl, 7-hydroxy-6-methoxy-4-methylcoumarin ester) hydrolysis by MGL. The Ki value is the affinity constant and describes the ability of the compounds to inhibit the function of FAAH or MGL. The lower the IC50/Ki values, the higher the affinity of the inhibitor for the enzyme and the higher its inhibitory activity. A detailed description of the methods used to test inhibitory activity of compounds is given below.
A full-length cDNA clone of the human MGL transcript variant 1 (gi: 51242951) was obtained from OriGene Technologies (Rockville, Md.). The coding part of the MGL sequence (except the translation initiation codon ATG) was amplified by a polymerase chain reaction (PCR) using forward […] and reverse […] primers containing PmlI and SacI restriction enzyme recognition sites, respectively. iProof high-fidelity DNA polymerase (Bio-Rad, Hercules, Calif.) was used in the PCR amplification with 33 cycles, each consisting of denaturation at 94° C. for 10 s, annealing at 55° C. for 33 s, and extension at 72° C. for 1 min. The PCR product and pET45b vector were digested with PmlI and SacI restriction enzymes, and the vector was dephosphorylated with CIP followed by in-gel purification using the MinElute Gel Extraction Kit (Qiagen Corp., Valencia, Calif.). The fragment was inserted into the vector directly downstream after the 6 histidine and valine codons, generating the construct pET45His6hMGL for expression of hMGL containing an N-terminal His6-tag. GC10 E. coli cells were used for DNA transformation and plasmid propagation. Mini- and midi-scale plasmid DNA preparations were performed using a GenElute Plasmid Miniprep Kit (Sigma) and PureYield Plasmid Midiprep System (Promega, Madison, Wis.), respectively. In-frame vector-fragment junctions and the coding sequence of the recombinant gene were confirmed by sequencing. The pET45His6hMGL construct was transformed into BL21 (DE3) and Origami (DE3) E. coli expression strains (Novagen, Madison, Wis.).
A single E. coli BL21 (DE3) colony containing the pET45His6hMGL plasmid was inoculated into 12 mL of Luria broth-ampicillin medium and grown overnight with shaking (250 rpm) at 37° C. The next morning, 10 mL of this culture was inoculated into 1 L of fresh Luria broth-ampicillin and allowed to grow until culture turbidity reached an (OD)600 of 0.6-0.8, at which time expression from the T7 promoter was induced by adding isopropyl-β-D-thio-galactopyranoside (1 mM). After 5 h induction, the cells were harvested by centrifugation at 5,000 g for 10 min at 4° C., washed with PBS, and held at −80° C. Five grams (wet-weight) of cells were resuspended in 50 mL lysis buffer (100 mM NaCl; 50 mM Tris, pH 8.0) supplemented with Triton X-100 (0.5%), lysozyme (0.2 mg/mL), and DNase I (25 μg/ml) and disrupted on ice by three, one-min sonication cycles, each consisting of 1-sec sonication bursts at 50 W power separated from each other by a 2-sec interval (Vibra-Cell 500 W, Sonics, Newtown, Conn.). The cell lysate was centrifuged at 10,000 g for 30 min at 4° C. […]

The next experiment addresses T2, ΔTM rFAAH (Rattus norvegicus, UniProt P97612).
T2 construct: 15 ug of ΔTM rFAAH (cell lysate obtained by recombinant procedure); made in house
T2 sequence (P97612 30-579 limits assumed): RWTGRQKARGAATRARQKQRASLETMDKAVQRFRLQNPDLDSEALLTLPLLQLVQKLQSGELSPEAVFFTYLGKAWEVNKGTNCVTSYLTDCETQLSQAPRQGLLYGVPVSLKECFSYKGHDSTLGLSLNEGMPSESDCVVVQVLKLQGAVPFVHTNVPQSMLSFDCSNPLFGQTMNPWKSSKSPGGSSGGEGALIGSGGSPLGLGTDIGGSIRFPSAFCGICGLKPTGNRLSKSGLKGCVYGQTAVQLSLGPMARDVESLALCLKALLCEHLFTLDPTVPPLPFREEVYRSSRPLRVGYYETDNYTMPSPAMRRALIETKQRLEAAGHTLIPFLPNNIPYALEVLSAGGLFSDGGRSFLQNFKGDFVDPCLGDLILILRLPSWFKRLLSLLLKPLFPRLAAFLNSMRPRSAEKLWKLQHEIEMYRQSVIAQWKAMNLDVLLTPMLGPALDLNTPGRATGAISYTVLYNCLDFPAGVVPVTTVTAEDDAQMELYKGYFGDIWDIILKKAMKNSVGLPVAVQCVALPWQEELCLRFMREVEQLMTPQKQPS
As to the kind of experiment: Fluorescent enzyme assay, FAAH (AAMCA hydrolysis). The class given is biochemical. The conditions noted are these: AAMCA substrate, screening assay; for inhibition at 0.01 µM: 10 nM inhibitor; for inhibition at 1 µM: 1000 nM inhibitor. The procedure: as §1
The enzyme (FAAH and MGL) assays were performed in 96 well plates (Coster #3650) in a total volume of 200 uL. Fluorogenic substrate AAMCA (arachidonoyl 7-amino-4-methylcoumarin amide) for FAAH and AHMMCE (arachidonoyl 7-hydroxy-6-methoxy-4-methylcoumarin ester) for MGL were used using BioTek Synergy HT Microplate Reader. Compounds and substrates were dissolved in DMSO provide a 10 mM stock solution and kept as a stock solution at −20° C. until used for assay. Stock solutions were thawed and reconstituted in 50:50 DMSO/assay buffer to a final DMSO concentration per well below 8%. This ensures that the compounds and substrate are in solution during assay. […] Appropriate substrate was added to adjust the final concentration in each well to 20 uM for FAAH (2× Km) and 10 uM for MGL (1×KM). Fluorescence readings were performed at λex=360/λem=460 for 4 h using Kinetic assay protocol at every 20 min (the fluorescent product coumarin produced is quantitated by this procedure). The readings at 3 h for FAAH and 2 h for MGL (linear maximum hydrolysis kinetics of enzyme on substrate) were used to calculate percent inhibition based on controls. Compounds which had more than 50 percent inhibition at 10 uM were selected for dose response study to determine IC50 values. The dose response at 8 concentration points was performed as with the screening assay except that compounds were serially diluted to 8 concentration points which were chosen based on IC50 value, which were calculated from the screening assay results. Assays are run twice in triplicates and Graphpad Prism software is used to plot inhibition data to obtain IC50 values.

The term inhibition denotes how much of the control response was suppressed.

With `CN(C)C(=O)n1nnc(Cc2ccc(Br)cc2)n1` [Compound 16a, 5-(4-bromobenzyl)-N,N-dimethyl-2H-tetrazole-2-carboxamide], the inhibition at 0.01 µM worked out at 98% at hMGL and 92% at ΔTM rFAAH.
For the molecule `CN(C)C(=O)n1nnnc1Cc1ccc(Br)cc1` [Compound 16b], the values for the inhibition at 0.01 µM on hMGL and on ΔTM rFAAH were 64% and 92%, respectively.
Regarding `CN(C)C(=O)n1nnc(Cc2ccc(Cl)cc2Cl)n1` [Compound 17a, 5-(2,4-dichlorobenzyl)-N,N-dimethyl-2H-tetrazole-2-carboxamide], the results for the inhibition at 0.01 µM on hMGL and at ΔTM rFAAH were 99% and 93%, respectively.
The matching figures for `CN(C)C(=O)n1nnnc1Cc1ccc(Cl)cc1Cl` [Compound 17b]: 97% and 86%.
Taken in the same sequence, the figures for `CN(C)C(=O)n1nnc(Cc2ccc(I)cc2)n1` [Compound 18a, 5-(4-iodobenzyl)-N,N-dimethyl-2H-tetrazole-2-carboxamide] were 97% and 92%.
Taken in the same sequence, the figures for `CN(C)C(=O)n1nnnc1Cc1ccc(I)cc1` [Compound 18b] were 64% and 86%.
On to `CN(C)C(=O)n1nnc(Cc2ccc(OC(F)(F)F)cc2)n1` [Compound 19a], for which the inhibition at 0.01 µM on hMGL stood at 99%; at ΔTM rFAAH, 92%.
With `CN(C)C(=O)n1nnnc1Cc1ccc(OC(F)(F)F)cc1` [Compound 19b], the inhibition at 0.01 µM at hMGL is 76%; at ΔTM rFAAH, 91%.
As for `CN(C)C(=O)n1nnc(Cc2ccc(C(F)(F)F)cc2)n1` [Compound 20a, N,N-dimethyl-5-[4-(trifluoromethyl)benzyl]-2H-tetrazole-2-carboxamide], the inhibition at 0.01 µM amounted to 98% at hMGL and 93% at ΔTM rFAAH.
Regarding `CN(C)C(=O)n1nnnc1Cc1ccc(C(F)(F)F)cc1` [Compound 20b], the figures for the inhibition at 0.01 µM at hMGL and on ΔTM rFAAH were 6% and 90%, respectively.
`CN(C)C(=O)n1nnc(Cc2ccc(Cl)cc2)n1` [Compound 21a]: the inhibition at 0.01 µM was 97% on hMGL and 93% on ΔTM rFAAH.
On to `CN(C)C(=O)n1nnnc1Cc1ccc(Cl)cc1` [Compound 21b], for which the values for the inhibition at 0.01 µM at hMGL and on ΔTM rFAAH were 54% and 93%, respectively.
In the case of `CN(C)C(=O)n1nnc(Cc2ccc([N+](=O)[O-])cc2)n1` [Compound 22a, N,N-dimethyl-5-(4-nitrobenzyl)-2H-tetrazole-2-carboxamide], the inhibition at 0.01 µM worked out at 97% on hMGL and 92% at ΔTM rFAAH.
`CN(C)C(=O)n1nnnc1Cc1ccc([N+](=O)[O-])cc1` [Compound 22b]: the results for the inhibition at 0.01 µM at hMGL and at ΔTM rFAAH were 22% and 85%, respectively.
Taken in the same sequence, the figures for `CSc1ccc(Cc2nnn(C(=O)N(C)C)n2)cc1` [Compound 23a] were 98% and 91%.
The matching figures for `CSc1ccc(Cc2nnnn2C(=O)N(C)C)cc1` [Compound 23b]: 60% and 89%.
The matching figures for `COc1ccc(Cc2nnn(C(=O)N(C)C)n2)cc1` [Compound 24a, 5-(4-methoxybenzyl)-N,N-dimethyl-2H-tetrazole-2-carboxamide]: 21% and 47%.
Consider `COc1ccc(Cc2nnnn2C(=O)N(C)C)cc1` [Compound 24b], for which the inhibition at 1 µM on hMGL turned out to be 96%; at ΔTM rFAAH, 100%.
With `CC(=O)Nc1ccc(Cc2nnn(C(=O)N(C)C)n2)cc1` [Compound 25a], the inhibition at 1 µM against hMGL stood at 99%; at ΔTM rFAAH, 100%.
The matching figures for `CC(=O)Nc1ccc(Cc2nnnn2C(=O)N(C)C)cc1` [Compound 25b]: 90% and 88%.
For the molecule `Cc1ccc(Cc2nnn(C(=O)N(C)C)n2)cc1` [Compound 26a, N,N-dimethyl-5-(4-methylbenzyl)-2H-tetrazole-2-carboxamide], the inhibition at 0.01 µM at hMGL amounted to 96%; on ΔTM rFAAH it was 93%.
Regarding `Cc1ccc(Cc2nnnn2C(=O)N(C)C)cc1` [Compound 26b], the results for the inhibition at 0.01 µM on hMGL and on ΔTM rFAAH were 23% and 85%, respectively.
The matching figures for `CN(C)C(=O)n1nnc2ccccc21` [Compound 28, N,N-dimethyl-1H-benzo[d][1,2,3]-triazole-1-carboxamide]: 30% and 67%.
Turning to `CN(C)C(=O)n1cnnc1` [Compound 29, N,N-dimethyl-4H-1,2,4-triazole-4-carboxamide], the figures for the inhibition at 1 µM on hMGL and at ΔTM rFAAH were 79% and 92%, respectively.
Taken in the same sequence, the figures for `CN(C)C(=O)n1ccc(-c2ccccc2)n1` [Compound 30, N,N-dimethyl-3-phenyl-1H-pyrazole-1-carboxamide] were 11% and 23%.

These data come from patent US9271962B2 (NORTHEASTERN UNIVERSITY, priority 2008, dated 2016).
